The values below come from patent publication US11999727B2 (Tango Therapeutics, Inc., priority 2020, dated 2024).

Each structure is given as a SMILES string. Where only a bound is given, the exact number is not on record here.

The target in assay [1] is T1, PRMT5 (Homo sapiens, UniProt O14744).
T1 construct: purchased Viva (custom protein)
Put plainly: PRMT5 biochemical IC50 assay with no cofactor. The conditions noted are these: PRMT5, no cofactor. An excerpt:
Table 1 indicates IC50 values (μM) against PRMT5 for exemplary compounds in the presence of SAM as cofactor, with no cofactor, and with MTA as cofactor, respectively (columns 4-6). […] Ki values can be calculated from the IC50 values as described in the Examples section. As detailed in the Examples section, for the assay performed in the presence of SAM, IC50=Ki×1.5 (Ki=IC50/1.5).

Assay [2] has as its system HAP1 MTAP-intact cell line. Put plainly: SDMA in-cell western assay, HAP1 MTAP-intact. The format is cell-based. The conditions noted are these: Homo sapiens, HAP1, SDMA in-cell western, HAP1 MTAP-intact; read-out: MTAP HAP1 intact IC50. Summed up: (§1)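 Compounds were tested in HAP1 cells differing only in MTAP status (endogenous expression versus null). Cellular SDMA levels were then measured by in-cell western, giving an IC50 in each background.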

Assay [3] deals with HAP1 MTAP-deleted cell line. Put plainly: SDMA in-cell western assay, HAP1 MTAP-deleted. The format is cell-based. The following applies: for IC50: Homo sapiens, HAP1, SDMA in-cell western, HAP1 MTAP-deleted; for MTAP intact/deleted ratio: SDMA in-cell western. An outline of the steps: as §1
The target of assay [4] is T1, PRMT5. Put plainly: PRMT5 biochemical IC50 assay with MTA as cofactor. The following applies: PRMT5, MTA as cofactor; read-out: MTA IC50.
For assay [5], the target named is T1, PRMT5. Put plainly: PRMT5 biochemical IC50 assay with SAM as cofactor. The conditions noted are these: PRMT5, SAM as cofactor; read-out: SAM IC50.
Assay [6] concerns HAP1 MTAP-deleted cell line. Put plainly: Viability assay, MTAP-deleted cell line. The format is cell-based. The conditions noted are these: Homo sapiens, read-out: HAP1 MTAP deleted viability. An excerpt: Table 1 additionally indicates IC50 values in a viability assay for the MTAP-deleted cell line (column 10), indicating the effect of treatment with compound on cell survival.

The mark [7] stands for this setting: read-out: HAP1 MTAP deleted IC50.
[8] abbreviates: IC50 ratio HAP1 MTAP-intact / HAP1 MTAP-deleted.
Setting [9] is: HAP1, viability assay, MTAP-deleted cell line.
Setting [10] is: read-out: No Cofactor/ rel IC50.
Where [11] appears, read: read-out: HAP 1 MTAP deleted IC50.
The mark [12] stands for this setting: HAP1, viability assay, HAP1 MTAP-deleted.
[13] abbreviates: HAP1, viability, HAP1 MTAP-deleted cell line.

T1 sequence (O14744 whole entry): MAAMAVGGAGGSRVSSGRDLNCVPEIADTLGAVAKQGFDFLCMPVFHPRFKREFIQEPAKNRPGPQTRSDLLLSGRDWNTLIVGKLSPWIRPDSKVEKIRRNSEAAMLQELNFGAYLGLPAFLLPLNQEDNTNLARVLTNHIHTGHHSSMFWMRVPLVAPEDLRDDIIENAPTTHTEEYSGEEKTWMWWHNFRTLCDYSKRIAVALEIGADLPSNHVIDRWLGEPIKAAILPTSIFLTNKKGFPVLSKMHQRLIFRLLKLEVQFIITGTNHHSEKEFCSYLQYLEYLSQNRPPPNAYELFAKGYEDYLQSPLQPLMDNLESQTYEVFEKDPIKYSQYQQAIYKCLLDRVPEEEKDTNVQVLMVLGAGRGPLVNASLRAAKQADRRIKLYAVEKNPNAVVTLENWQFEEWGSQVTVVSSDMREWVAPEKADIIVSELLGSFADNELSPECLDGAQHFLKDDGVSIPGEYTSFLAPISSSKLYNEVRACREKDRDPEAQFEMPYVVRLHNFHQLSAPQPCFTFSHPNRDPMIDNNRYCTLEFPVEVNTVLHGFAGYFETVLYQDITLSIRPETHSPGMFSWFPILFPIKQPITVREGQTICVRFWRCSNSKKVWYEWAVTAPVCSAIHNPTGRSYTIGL
T1 sequence (Q9BQA1 whole entry partner): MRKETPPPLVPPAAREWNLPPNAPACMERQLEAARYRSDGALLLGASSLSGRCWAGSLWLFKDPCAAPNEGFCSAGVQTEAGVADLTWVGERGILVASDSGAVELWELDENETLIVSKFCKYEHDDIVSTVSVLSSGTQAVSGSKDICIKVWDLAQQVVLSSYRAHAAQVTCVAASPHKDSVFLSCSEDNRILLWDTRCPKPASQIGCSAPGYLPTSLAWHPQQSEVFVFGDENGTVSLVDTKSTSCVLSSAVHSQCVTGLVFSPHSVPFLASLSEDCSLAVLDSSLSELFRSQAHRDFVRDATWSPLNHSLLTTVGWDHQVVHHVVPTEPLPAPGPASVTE

Consider `Cc1cc(NC(=O)C(=O)N2C[C@H](C)CC[C@H]2c2ccnn2C)cnc1N` (racemic) [Compound 235, N-(6-amino-5-methyl-3-pyridyl)-2-[(2R,5S)-5-methyl-2-(2-methylpyrazol-3-yl)-1-piperidyl]-2-oxo-acetamide], for which the IC50 was 50 to 500 nM at PRMT5 [1] (read-out: No Cofactor/rel IC50); more than 1000 nM in assay [2]; more than 1000 nM in assay [3] (setting [7]); 50 to 500 nM on PRMT5 [4]; 50 to 500 nM on PRMT5 [5]; more than 10000 nM in assay [6] (setting [9]). The MTAP intact/deleted ratio result in assay [3] (setting [8]) is listed as “B (an IC50 ratio greater than or equal to 3 fold but lower than 10 fold)”.
On to `CC(=O)N1CCC(c2cccc(C3CCCCN3C(=O)C(=O)Nc3cnc(N)c(C)c3)c2)CC1` (racemic) [Compound 95, 2-(2-(3-(1-acetylpiperidin-4-yl)phenyl)piperidin-1-yl)-N-(6-amino-5-methylpyridin-3-yl)-2-oxoacetamide], for which the IC50 was 50 to 500 nM at PRMT5 [1] (setting [10]); more than 1000 nM in assay [2]; less than 100 nM in assay [3] (setting [11]); less than 50 nM on PRMT5 [4]; 50 to 500 nM at PRMT5 [5]; 1000 to 10000 nM in assay [6] (setting [9]). For the same compound, the “MTAP intact/deleted ratio” value in assay [3] (setting [8]) was “A (an IC50 ratio greater than or equal to 10 fold)”.
Regarding `CCc1cc(NC(=O)C(=O)N2C[C@H](C)CC[C@H]2c2ccc(C(N)=O)s2)cnc1N` (single isomer, unassigned) [Compound 838], the IC50 was less than 50 nM on PRMT5 [1] (read-out: No Cofactor/rel IC50); 100 to 1000 nM in assay [2]; less than 100 nM in assay [3] (setting [7]); less than 50 nM at PRMT5 [4]; 50 to 500 nM on PRMT5 [5]; less than 1000 nM in assay [6] (setting [12]). The MTAP intact/deleted ratio entry in assay [3] (setting [8]) is on record as “A (an IC50 ratio greater than or equal to 10 fold)”.
As for `Cc1cc(NC(=O)C(=O)N2C[C@H](C)CC[C@H]2c2ccc(C(N)=O)s2)cnc1N` (single isomer, unassigned) [Compound 823], the IC50 on PRMT5 [1] (read-out: No Cofactor/rel IC50) is more than 500 nM; in assay [2], more than 1000 nM; in assay [3] (setting [7]) it was more than 1000 nM; on PRMT5 [4], more than 500 nM; on PRMT5 [5] it was more than 500 nM; in assay [6] (setting [12]), more than 10000 nM. Further, in assay [3] (setting [8]), the MTAP intact/deleted ratio result is given as “C (an IC50 ratio of less than 3 fold)”.
As for `CCc1cc(NC(=O)C(=O)N2C[C@@H](C)CC[C@@H]2c2ccc(NC3CCN(C)CC3)nc2)cnc1N` [Compound 1306, N-(6-Amino-5-ethyl-3-pyridyl)-2-[(2R,5S)-5-methyl-2-[6-[(1-methyl-4-piperidyl)amino]-3-pyridyl]-1-piperidyl]-2-oxo-acetamide], the IC50 on PRMT5 [1] (setting [10]) was less than 50 nM; in assay [2], 100 to 1000 nM; in assay [3] (setting [11]), less than 100 nM; on PRMT5 [4], less than 50 nM; on PRMT5 [5] it was 50 to 500 nM; in assay [6] (setting [13]), less than 1000 nM. The “MTAP intact/deleted ratio” value in assay [3] (setting [8]) is on record as “A (an IC50 ratio greater than or equal to 10 fold)”.
As to `COCc1nc2cc([C@H]3CC[C@H](C)CN3C(=O)C(=O)Nc3cnc(N)c(C)c3)ccc2s1` (single isomer, unassigned) [Compound 1211], the IC50 was 50 to 500 nM at PRMT5 [1] (read-out: No Cofactor/rel IC50); less than 100 nM in assay [2]; less than 100 nM in assay [3] (setting [7]); less than 50 nM at PRMT5 [4]; 50 to 500 nM on PRMT5 [5]; less than 1000 nM in assay [6] (setting [9]). The MTAP intact/deleted ratio result in assay [3] (IC50 ratio HAP1 MTAP-intact vs HAP1 MTAP-deleted) was “A (an IC50 ratio greater than or equal to 10 fold)”.
Turning to `COc1ncc(NC(=O)C(=O)N2C[C@@H](C)CC[C@@H]2c2ccn(-c3cc[nH]n3)n2)cc1C(N)=O` (single isomer, unassigned) [Compound 881], the IC50 is more than 500 nM on PRMT5 [1] (read-out: No Cofactor/rel IC50); more than 1000 nM in assay [2]; more than 1000 nM in assay [3] (setting [7]); more than 500 nM on PRMT5 [4]; more than 500 nM on PRMT5 [5]; more than 10000 nM in assay [6] (setting [12]). In assay [3] (setting [8]), the MTAP intact/deleted ratio entry is recorded as “B (an IC50 ratio greater than or equal to 3 fold but lower than 10 fold)”.
On to `Cc1cc(NC(=O)C(=O)N2C[C@H](C)CC[C@H]2C)cnc1N` (racemic) [Compound 158, N-(6-amino-5-methyl-3-pyridyl)-2-[(2R,5R)-2,5-dimethyl-1-piperidyl]-2-oxo-acetamide], for which the IC50 on PRMT5 [1] (setting [10]) was 50 to 500 nM; in assay [2] it was more than 1000 nM; in assay [3] (setting [11]), more than 1000 nM; at PRMT5 [4], 50 to 500 nM; on PRMT5 [5], 50 to 500 nM; in assay [6] (setting [9]), more than 10000 nM. Also, the “MTAP intact/deleted ratio” value in assay [3] (setting [8]) is listed as “C (an IC50 ratio of less than 3 fold)”.
For the compound `C[C@@H]1CC[C@@H](c2ccccc2)N(C(=O)C(=O)Nc2cncc(C(N)=O)c2)[C@@H]1C` (racemic) [Compound 154, rac-5-[[2-[(2R,3R,6S)-2,3-dimethyl-6-phenyl-1-piperidyl]-2-oxo-acetyl]amino]pyridine-3-carboxamide], the IC50 at PRMT5 [1] (setting [10]) is 50 to 500 nM; in assay [2], more than 1000 nM; in assay [3] (setting [11]), more than 1000 nM; at PRMT5 [4], less than 50 nM; on PRMT5 [5] it was 50 to 500 nM; in assay [6] (setting [9]) it was more than 10000 nM. Besides, the “MTAP intact/deleted ratio” value in assay [3] (setting [8]) is “B (an IC50 ratio greater than or equal to 3 fold but lower than 10 fold)”.
`C[C@@H]1CC[C@@H](c2cncc(Cl)c2)N(C(=O)C(=O)Nc2cncc(C(N)=O)c2)C1` (racemic) [Compound 791, 5-(2-(2-(5-chloropyridin-3-yl)-5-methylpiperidin-1-yl)-2-oxoacetamido)nicotinamide]: the IC50 on PRMT5 [1] (read-out: No Cofactor/rel IC50) is 50 to 500 nM; in assay [2] it was more than 1000 nM; in assay [3] (setting [7]) it was 100 to 1000 nM; on PRMT5 [4] it was less than 50 nM; at PRMT5 [5], 50 to 500 nM; in assay [6] (setting [12]), 1000 to 10000 nM. In addition, the MTAP intact/deleted ratio entry in assay [3] (setting [8]) was “A (an IC50 ratio greater than or equal to 10 fold)”.
As for `Cc1cc(NC(=O)C(=O)N2C[C@H](C)CC[C@H]2c2ccc(N)cn2)cnc1N` (racemic) [Compound 658, N-(6-amino-5-methyl-3-pyridyl)-2-[2-(5-amino-2-pyridyl)-5-methyl-1-piperidyl]-2-oxo-acetamide], the IC50 is 50 to 500 nM at PRMT5 [1] (read-out: No Cofactor/rel IC50); more than 1000 nM in assay [2]; 100 to 1000 nM in assay [3] (setting [11]); 50 to 500 nM at PRMT5 [4]; 50 to 500 nM at PRMT5 [5]; more than 10000 nM in assay [6] (HAP1, viability IC50, MTAP-deleted cell line). Also, the MTAP intact/deleted ratio result in assay [3] (setting [8]) was “A (an IC50 ratio greater than or equal to 10 fold)”.
Turning to `CCc1cc(NC(=O)C(=O)N2C[C@@H](C)CC[C@@H]2c2ccc3sc(C4CCN(CC(F)F)CC4)nc3c2)cnc1N` [Compound 1304, N-(6-amino-5-ethylpyridin-3-yl)-2-((2R,5S)-2-(2-(1-(2,2-difluoroethyl)piperidin-4-yl)benzo[d]thiazol-5-yl)-5-methylpiperidin-1-yl)-2-oxoacetamide], the IC50 is less than 50 nM at PRMT5 [1] (setting [10]); 100 to 1000 nM in assay [2]; less than 100 nM in assay [3] (setting [11]); less than 50 nM at PRMT5 [4]; less than 50 nM on PRMT5 [5]; less than 1000 nM in assay [6] (setting [13]). Besides, the “MTAP intact/deleted ratio” value in assay [3] (setting [8]) was “A (an IC50 ratio greater than or equal to 10 fold)”.
For `C[C@@H]1CC[C@@H](c2ccc(N)nc2)N(C(=O)C(=O)Nc2cncc(C(N)=O)c2)C1` (racemic) [Compound 224, rac-5-{2-[(2R,5S)-2-(6-Aminopyridin-3-yl)-5-methylpiperidin-1-yl]-2-oxoacetamido}pyridine-3-carboxamide], the IC50 was 50 to 500 nM at PRMT5 [1] (read-out: No Cofactor/rel IC50); more than 1000 nM in assay [2]; less than 100 nM in assay [3] (setting [7]); less than 50 nM at PRMT5 [4]; 50 to 500 nM on PRMT5 [5]; 1000 to 10000 nM in assay [6] (setting [9]). Moreover, the MTAP intact/deleted ratio entry in assay [3] (setting [8]) is on record as “A (an IC50 ratio greater than or equal to 10 fold)”.
Turning to `COc1ncc(NC(=O)C(=O)N2C[C@@H](C)CC[C@@H]2c2cccs2)cc1C(N)=O` (single isomer, unassigned) [Compound 303], the IC50 on PRMT5 [1] (read-out: No Cofactor/rel IC50) was less than 50 nM; in assay [2] it was more than 1000 nM; in assay [3] (setting [7]) it was less than 100 nM; at PRMT5 [4] it was less than 50 nM; at PRMT5 [5] it was 50 to 500 nM; in assay [6] (setting [9]), less than 1000 nM. Moreover, in assay [3] (setting [8]), the MTAP intact/deleted ratio result is recorded as “A (an IC50 ratio greater than or equal to 10 fold)”.
With `C[C@@H]1C[C@@H](F)[C@@H](c2ccc(F)cc2)N(C(=O)C(=O)Nc2cncc(C(N)=O)c2)C1` (racemic) [Compound 898, 5-[[2-[(2R,3R,5R)-3-fluoro-2-(4-fluorophenyl)-5-methyl-1-piperidyl]-2-oxo-acetyl]amino]pyridine-3-carboxamide], the IC50 at PRMT5 [1] (read-out: No Cofactor/rel IC50) was 50 to 500 nM; in assay [2], more than 1000 nM; in assay [3] (setting [11]) it was 100 to 1000 nM; at PRMT5 [4], 50 to 500 nM; on PRMT5 [5], more than 500 nM; in assay [6] (setting [9]), 1000 to 10000 nM. In addition, the MTAP intact/deleted ratio result in assay [3] (setting [8]) is given as “A (an IC50 ratio greater than or equal to 10 fold)”.
